Assay results published in US20260062426A1, “CYCLIN DEPENDENT KINASE DEGRADERS AND METHODS OF USE THEREOF” (Differentiated Therapeutics Inc, priority 2023, published 2026).

Legend:
Assay type in all cases: cell-based
CDK9 = molecular target: T1, CDK9 (Homo sapiens, UniProt P50750); assay: CDK9 HIBIT PQ (protein quantification), degradation; details: for Dmax / CDK9 HIBIT PQ Max (%): Max = Maximum; for DC50: PQ = Protein Quantification
T1 construct: host or cells: HEK293
Procedure, shortened: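 Maximal degradation, Dmax and DC50 come from HiBiT assay readings of CDK9 protein in compound-treated HEK293 cells that express HiBiT-tagged CDK9. The cells were grown in DMEM with 10% FBS and seeded at 1.6×10^5 cells/well in 50 uL in 384-well plates before overnight incubation at 37° C and 5% CO2. Cells treated with 0.1% DMSO set the high control, and medium only set the low control.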

CCNE1 = molecular target: T2, CCNE1 (Homo sapiens, UniProt P24864+P24941); assay: CCNE1 HIBIT PQ (protein quantification), degradation; details: for CCNE1 HIBIT PQ Max (%): Max = Maximum; for DC50: PQ = Protein Quantification
T2 construct: host or cells: HEK293
Procedure, shortened: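 Compound was applied for 6 hours to HEK293 cells expressing HiBiT-tagged CCNE1, which had been seeded overnight in 384-well plates at 1.6×10⁵ cells/well. CCNE1 protein was then read by HiBiT assay against a high control of 0.1% DMSO-treated cells and a low control of medium only. These readings gave DC50 and maximal degradation.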

CDK2 = molecular target: T3, CDK2 (Homo sapiens, UniProt P24941); assay: CDK2 HIBIT PQ (protein quantification), degradation; details: for CDK2 HIBIT PQ Max (%): Max = Maximum; for DC50: PQ = Protein Quantification
T3 construct: host or cells: HEK293
Procedure, shortened: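 Maximal degradation and DC50 were obtained from luminescence readings of HEK293 cells expressing HiBiT-tagged CDK2. The cells, grown in DMEM with 10% FBS, were seeded at 1.6×10^5 cells/well in 50 uL in 384-well plates and incubated overnight at 37° C and 5% CO2 before 6 hours of compound treatment. HiBiT reagent (Nano-Glo HiBiT lytic buffer, lytic substrate, LgBiT protein) was then added at 20 μL, and plates were shaken for 20 minutes at room temperature before reading on an EnVision, against a high control of 0.1% DMSO and a low control of medium only.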

T1 sequence (P50750 whole entry): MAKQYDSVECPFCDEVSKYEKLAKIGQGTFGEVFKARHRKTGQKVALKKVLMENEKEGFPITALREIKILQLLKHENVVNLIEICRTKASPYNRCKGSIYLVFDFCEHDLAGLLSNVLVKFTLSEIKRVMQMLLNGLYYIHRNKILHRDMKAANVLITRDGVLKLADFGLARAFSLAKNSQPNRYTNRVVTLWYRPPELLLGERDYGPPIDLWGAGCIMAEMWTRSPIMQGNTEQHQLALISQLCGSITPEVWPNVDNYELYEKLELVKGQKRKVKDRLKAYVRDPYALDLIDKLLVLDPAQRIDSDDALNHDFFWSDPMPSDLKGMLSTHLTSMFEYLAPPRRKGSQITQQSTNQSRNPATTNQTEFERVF

| Dmax (CDK9) | DC50 (CDK9) | CCNE1 HIBIT PQ Max (%) (CCNE1) | DC50 (CCNE1) | CDK2 HIBIT PQ Max (%) (CDK2) | DC50 (CDK2) | CDK9 HIBIT PQ Max (%) (CDK9) | SMILES |
| --- | --- | --- | --- | --- | --- | --- | --- |
| 82% | 2.25 nM | 76% | 0.62 nM | 90% | 0.3 nM |  | Cc1cc(S(=O)(=O)N(C)CCCN2CCC(c3ccc4c(c3)n(C)c(=O)n4C3CCC(=O)NC3=O)CC2)cc(F)c1Nc1nc2c(OC(C)C)c(-c3cn[nH]c3)ncn2n1 (racemic) [Compound 57] |
| 86% | 1.51 nM | 86% | 0.39 nM | 94% | 0.1 nM |  | CC(C)Oc1c(-c2cn[nH]c2)ncn2nc(Nc3c(F)cc(S(=O)(=O)N(C)CCCN4CCC(c5ccc6c(c5)n(C)c(=O)n6C5CCC(=O)NC5=O)CC4)cc3F)nc12 (racemic) [Compound 58] |
| 68% | 1.34 nM | 66% | 0.4 nM | 86% | 0.1 nM |  | Cc1cc(Nc2nc3c(OC(C)C)c(-c4cn[nH]c4)ncn3n2)c(F)cc1S(=O)(=O)N(C)CCCN1CCC(c2ccc3c(c2)n(C)c(=O)n3C2CCC(=O)NC2=O)CC1 (racemic) [Compound 59] |
| 75% | 1.52 nM | 74% | 0.45 nM | 93% |  |  | CC(C)Oc1c(-c2cn[nH]c2)ncn2nc(Nc3cc(F)c(S(=O)(=O)N(C)CCCN4CCC(c5ccc6c(c5)n(C)c(=O)n6C5CCC(=O)NC5=O)CC4)cc3F)nc12 (racemic) [Compound 60] |
| 78% | 3.2 nM | 72% | 1.55 nM | 86% | 0.3 nM |  | CC(C)Oc1c(-c2cn[nH]c2)ncn2nc(Nc3ccc(S(=O)(=O)N(C)CCCN4CCC(c5ccc6c(c5)n(C)c(=O)n6C5CCC(=O)NC5=O)CC4)c4cnccc34)nc12 (racemic) [Compound 61] |
| 91% | 1.52 nM | 73% | 1.08 nM | 92% | < 0.152 nM |  | CC(C)Oc1c(-c2cn[nH]c2)ncn2nc(Nc3ccc(S(=O)(=O)N(C)CCCN4CCN(c5ccc6c(c5)n(C)c(=O)n6C5CCC(=O)NC5=O)CC4(C)C)cc3F)nc12 (racemic) [Compound 67] |
| 46% |  | 40% |  | 87% | 5.8 nM |  | CC(C)Oc1c(-c2cn[nH]c2)ncn2nc(Nc3ccc(S(=O)(=O)N4CC5(CCCN(CC6CCN(c7cccc8c7n(C)c(=O)n8C7CCC(=O)NC7=O)CC6)C5)C4)cc3F)nc12 (racemic) [Compound 76] |
| 82% | 12 nM | 80% | 9.64 nM | 93% | 1.5 nM |  | CC(C)Oc1c(-c2cn[nH]c2)ncn2nc(Nc3ccc(S(=O)(=O)c4cccc(C(C)N5CCC(c6ccc7c(N8CCC(=O)NC8=O)nn(C)c7c6)CC5)c4)cc3F)nc12 (racemic) [Compound 85] |
| 20% |  | 38% |  | 56% | 1.3 nM |  | CC(C)Oc1c(-c2cn[nH]c2)ncn2nc(Nc3ccc(S(=O)(=O)N4CCCC(CN5CC(c6ccc7c(N8CCC(=O)NC8=O)nn(C)c7c6)C5)C4)cc3F)nc12 (racemic) [Compound 86] |
| 72% | 3.32 nM | 79% | 1.4 nM | 90% | 0.4 nM |  | CC(C)Oc1c(-c2cn[nH]c2)ncn2nc(Nc3ccc(S(=O)(=O)N4CCCC(CN5CCC(c6ccc7c(N8CCC(=O)NC8=O)nn(C)c7c6)CC5)C4)cc3F)nc12 (racemic) [Compound 87, rac-(R)-1-(6-(1-((1-((3-fluoro-4-((8-isopropoxy-7-(1H-pyrazol-4-yl)-[1,2, 4]triazolo[1,5-c]pyrimidin-2-yl)amino)phenyl)sulfonyl)piperidin-3-yl)methyl)piperidin-4-yl)-1-methyl-1H-indazol-3-yl)dihydropyrimidine-2,4(1H,3H)-dione] |
| 19% |  | 41% |  | 68% | 0.6 nM |  | CC(C)Oc1c(-c2cn[nH]c2)ncn2nc(Nc3ccc(S(=O)(=O)N4CCC[C@H](CN5CC[C@H](c6ccc7c(N8CCC(=O)NC8=O)nn(C)c7c6)CC5(C)C)C4)cc3F)nc12 (relative stereo) [Compound 97, rel-1-(6-((R)-1-(((S)-1-((3-fluoro-4-((8-isopropoxy-7-(1H-pyrazol-4-yl)-[1,2,4]triazolo[1,5-c]pyrimidin-2-yl)amino)phenyl)sulfonyl)piperidin-3-yl)methyl)-2,2-dimethylpiperidin-4-yl)-1-methyl-1H-indazol-3-yl)dihydropyrimidine-2,4(1H,3H)-dione] |
| 88% | 5.2 nM | 89% | 1.55 nM | 92% | 0.3 nM |  | CC(C)Oc1c(-c2cn[nH]c2)ncn2nc(Nc3ccc(S(=O)(=O)N4CCCC(CN5CCC(c6ccc7c(N8CCC(=O)NC8=O)nn(C)c7c6)CC5)C4)cc3F)nc12 (single isomer, unassigned) [Compound 94] |
|  | 7.24 nM | 67% | 1.02 nM | 83% | 0.5 nM | 71% | CC(C)Oc1c(-c2cn[nH]c2)ncn2nc(Nc3ccc(S(=O)(=O)N4CCCC(CN5CCC(c6ccc7c(N8CCC(=O)NC8=O)nn(C)c7c6)CC5)C4)cc3F)nc12 (single isomer, unassigned) [Compound 95] |
| 80% | 8.05 nM | 75% | 3.16 nM | 87% | 1 nM |  | CC(C)Oc1c(-c2cn[nH]c2)ncn2nc(Nc3ccc(S(=O)(=O)N4CCC[C@H](CN5CC[C@@H](c6ccc7c(N8CCC(=O)NC8=O)nn(C)c7c6)CC5(C)C)C4)cc3F)nc12 (single isomer, unassigned) [Compound 96] |
| 78% | 34.8 nM | 67% | 12.7 nM | 95% | 2.3 nM |  | CC(C)Oc1c(-c2cn[nH]c2)ncn2nc(Nc3ccc(S(=O)(=O)c4cccc(C(C)N5CCN(c6ccc7c(N8CCC(=O)NC8=O)nn(C)c7c6)CC5)c4)cc3F)nc12 (single isomer, unassigned) [Compound 98] |
|  | 37.3 nM | 52% | 10.2 nM | 94% | 3 nM | 64% | CC(C)Oc1c(-c2cn[nH]c2)ncn2nc(Nc3ccc(S(=O)(=O)c4cccc(C(C)N5CCN(c6ccc7c(N8CCC(=O)NC8=O)nn(C)c7c6)CC5)c4)cc3F)nc12 (single isomer, unassigned) [Compound 99] |
| 86% | 12.4 nM | 80% | 14.3 nM | 90% | 2.9 nM |  | CC(C)Oc1c(-c2cn[nH]c2)ncn2nc(Nc3ccc(S(=O)(=O)c4cccc(C(C)N5CCC(c6ccc7c(N8CCC(=O)NC8=O)nn(C)c7c6)CC5)c4)cc3F)nc12 (single isomer, unassigned) [Compound 100] |
